This passage reports fold change (FC) results from ChEMBL document CHEMBL4393661, “PRODRUGS FOR NITROREDUCTASE BASED CANCER THERAPY- 2: Novel amide/Ntr combinations targeting PC3 cancer cells” (Eur J Med Chem, 2019).

Structures are written as SMILES.

This assay addresses T1, Putative nitroreductase (Staphylococcus saprophyticus subsp. saprophyticus (strain ATCC 15305 / DSM20229 / NCIMB 8711 / NCTC 7292 / S-41)) (UniProt Q4A0P1).
T1 sequence (whole entry): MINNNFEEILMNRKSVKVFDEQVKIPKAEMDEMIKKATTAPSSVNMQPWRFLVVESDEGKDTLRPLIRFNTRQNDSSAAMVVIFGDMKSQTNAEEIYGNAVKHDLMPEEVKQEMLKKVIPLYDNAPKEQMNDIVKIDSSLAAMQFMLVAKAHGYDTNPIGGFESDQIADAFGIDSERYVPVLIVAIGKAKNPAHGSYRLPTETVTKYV
The assay can be described thus: Substrate activity at Staphylococcus saprophyticus nitroreductase assessed as ratio of Kcat/Km up to 80 mM using NADH as cofactor relative to CB1954/NfsB.

Turning to `CC(=O)Nc1cc([N+](=O)[O-])cc([N+](=O)[O-])c1`, the fold change (FC) is 17.6.

Consider `CCN(C(C)=O)c1cc([N+](=O)[O-])cc([N+](=O)[O-])c1`, for which the fold change (FC) came to 20.9.

Consider `NC(=O)c1cc(N2CC2)c([N+](=O)[O-])cc1[N+](=O)[O-]`, for which the fold change (FC) was determined as 0.38.

Regarding `NC(=O)c1cc(N(CCCl)CCCl)c([N+](=O)[O-])cc1[N+](=O)[O-]`, the fold change (FC) is 1.67.
